Assay results published in PMC3466204 (PLoS ONE, 2012).
Several values for one entry are separate records, joined by “and”; a condition that tells them apart may be missing. Equal values may be shown once. Ends that are not written are not given here.

Tests used:
[1] = test system: S. typhimurium UK-1; test: Kill curve analysis; assay type: cell-based, Salmonella enterica serovar Typhimurium; conditions: 33 mg/L purified peptide, 2×10^5 cfu ml^−1, 37°C for 1 hour
Procedure: (§1) Using purified peptide in each case, 10 mM sodium phosphate buffer washed C. sakazakii, E. coli and Salmonella strains were diluted to a final concentration of 2×10^5 cfu ml^−1 and were exposed to nisin A, S29G and S29A at a concentration of 33 mg/L. Following incubation at 37°C for 1 hour, bacterial growth was monitored through plate counts.

[2] = test system: Salmonella enterica serovar Typhimurium UK1; test: Agarose gel diffusion assay, purified peptide; assay type: cell-based; conditions: purified peptide 60 µM
Procedure: (§2) Agarose-based deferred antagonism assays were carried out as follows: GM17/LB (0.03%) underlay was prepared with 10 mM sodium phosphate buffer (SPB) at pH 7.4 to which was added agarose (1% w/v agarose), autoclaved and cooled to 50°C. Bacteria grown to mid-logarithmic phase were harvested by centrifugation and washed with 10 mM SPB at pH 7.4. Bacteria were then added to 15 mls cooled underlay medium to reach a concentration of 2×10^7 colony-forming units (CFU)/mL. The inoculated medium was rapidly transferred into sterile Petri plates, allowed to solidify and dried. Wells (4.6 mm in diameter) were then made in the seeded plates. 10 µl volumes of cell-free supernatant from overnight nisin derivative producing cultures or resuspended purified peptides were then added to the wells and the plates incubated at 30°C (L. lactis) or 37°C (Gram positive strains) or RT (Gram negative strains) for 3 hours. Polymyxin B (Sigma Aldrich) was used at a concentration of 20 µg/ml. The plates were then overlaid with 15 mls of autoclaved double strength GM17 (L. lactis) or LB (Gram negatives) agarose (1% w/v agarose) overlay medium precooled to 50°C. The plates were then incubated overnight at the relevant temperature.

[3] = test system: E. coli 0157-H7; test: Agarose gel diffusion assay, purified peptide; assay type: cell-based; conditions: purified peptide 60 µM
Procedure: as §2

[4] = test system: B. cereus DPC 6089; test: Broth MIC, Gram positive; assay type: cell-based, Bacillus cereus; conditions: broth microtitre, BSA pre-treated plates, 10^5 cfu ml^−1, 2-fold dilutions from 10 µM, 16 h 37°C, purified peptide, mean of triplicate assays
Procedure: (§3) Minimum inhibitory concentration determinations for Gram positive organisms were carried out in triplicate in microtitre plates (Sarstedt). 96 well microtitre plates were pre-treated with bovine serum albumin (BSA) prior to addition of the peptides. Briefly, to each well of the microtitre plate 200 µL of phosphate buffered saline (PBS) containing 1% (w/v) bovine serum albumin (PBS/BSA) was added and incubated at 37°C for 30 min. The wells were washed with 200 µL PBS and allowed to dry. Target strains were grown overnight in the appropriate conditions and medium, subcultured into fresh broth and allowed to grow to an OD600 of ∼0.5, diluted to a final concentration of 10^5 cfu ml^−1 in a volume of 0.2 ml. Wild type nisin and nisin mutant peptides were adjusted to a 10 µM (S. mitis, B. cereus), 7.5 µM (L. monocytogenes), 5 µM (hVISA) 2.5 µM (MRSA, E. durans), or 500 nM (L. lactis strains) starting concentration and 2-fold serial dilutions of each peptide were added to the target strain.

[5] = test system: B. cereus DPC 6088; test: Broth MIC, Gram positive; assay type: cell-based, Bacillus cereus; conditions: broth microtitre, BSA pre-treated plates, 10^5 cfu ml^−1, 2-fold dilutions from 10 µM, 16 h 37°C, purified peptide, mean of triplicate assays
Procedure: as §3

[6] = test system: S. mitis UCC5000; test: Broth MIC, Gram positive; assay type: cell-based, Streptococcus mitis; conditions: broth microtitre, BSA pre-treated plates, 10^5 cfu ml^−1, 2-fold dilutions from 10 µM, 16 h 37°C, purified peptide, mean of triplicate assays
Procedure: as §3

[7] = test system: C. sakazakii DPC 6440; test: Kill curve analysis; assay type: cell-based, Cronobacter sakazakii; conditions: 33 mg/L purified peptide, 2×10^5 cfu ml^−1, 37°C for 1 hour
Procedure: as §1

[8] = test system: C. sakazakii DPC 6440; test: Agarose gel diffusion assay, purified peptide; assay type: cell-based, Cronobacter sakazakii; conditions: purified peptide 60 µM
Procedure: as §2

[9] = test system: C. sakazakii DPC 6440; test: Agarose gel diffusion assay, peptide alone or with polymyxin B nonapeptide (PMBN); assay type: cell-based, Cronobacter sakazakii
Procedure: as §2
Polymyxin B (PMB) is a cyclic lipodecapaptide produced by bacteria of the genus Paenibacillus that acts primarily on the Gram negative cell wall, leading to rapid permeability changes in the cytoplasmic membrane and ultimately cell death. […] To that end, C. sakazakii DPC 6440 cells were treated with purified nisin A, S29G and S29A peptides alone (30 µM) or in combination with PMBN at a concentration of 20 µg/ml and determined the antimicrobial activity by agarose gel diffusion assay (Fig. 5). […] When used in combination with PMBN, a substantial synergistic effect was clearly evident (Fig. 5) but in this instance no significant difference in efficacy was observed between nisin A or either of the derivatives S29A or S29G.

In the case of “S29G: bioengineered nisin A derivative with a serine to glycine change at position 29 (ITSISLCTPGCKTGALMGCNMKTATCHCGIHVSK; thioether (positions not given here); not fully specified (residues 2, 5, 33, bridges); UniProt P13068 24-57, looked up, variant S29G)”, the “Killing compared with nisin A (plate counts)” value [1] is reported as “greater activity than wildtype nisin A”, the “Zone of inhibition, agarose gel diffusion” value (“Zone of inhibition” below) ([2]; Salmonella Typhimurium UK1, mean of triplicate assays) is reported as 10.94±0.24 mm and the “Zone as % wt” value ([2]; Salmonella Typhimurium UK1, relative to nisin A) is reported as 111 % wt. The “Zone of inhibition” value ([3]; E. coli 0157-H7, mean of triplicate assays) was 11.10±0.05 mm, the “Zone as % wt” value ([3]; E. coli 0157-H7, relative to nisin A) was 113 % wt and the MIC [4] was 4.19 mg/L and 1.25 µM. The MIC [5] was 4.19 mg/L and 1.25 µM, the MIC [6] was 8.38 mg/L and 2.5 µM and the “Killing compared with nisin A (plate counts)” value [7] was “greater activity than wildtype nisin A”. The “Zone of inhibition” value ([8]; C. sakazakii DPC 6440, mean of triplicate assays) was 10.79±0.16 mm, the “Zone as % wt” value ([8]; C. sakazakii DPC 6440, relative to nisin A) was 110 % wt and the “Total area of inhibitory zone, peptide alone” value ([9]; purified peptide 30 µM alone) was 48.2±0.7 mm^2. The “Total area of inhibitory zone, peptide + PMBN” value ([9]; purified peptide 30 µM in combination with polymyxin B nonapeptide (PMBN) 20 µg/ml) was 118.6±5.0 mm^2.
